# Experimental data published in patent US20240218022A1, “ANTI-VISTA MACROCYCLIC PEPTIDES AND COMPOSITIONS” (BRISTOL-MYERS SQUIBB COMPANY, priority 2022, published 2024).
# Positions of bridges follow the written chain, without caps; N, C: chain ends. Non-standard residues stand in square brackets, D forms with d. Residues, ends and D or L forms follow the SMILES beside them. 2Nal = N[C@@H](Cc1ccc2ccccc2c1)C(=O)O; Cit = NC(=O)NCCC[C@H](N)C(=O)O; Ahp(2) = CCCCC[C@H](N)C(=O)O; NMeNle = CCCC[C@H](NC)C(=O)O; NHexGly = CCCCCCNCC(=O)O; Nle = CCCC[C@H](N)C(=O)O; Orn = NCCC[C@H](N)C(=O)O; NBuGly = CCCCNCC(=O)O
# Target: T1, mouse VISTA (mVISTA) (Mus musculus, UniProt Q9D659)
# T1 construct: expressed in transfected cells; host or cells: Human embryonic kidney 293T cells
# T1 sequence (Q9D659 33-308): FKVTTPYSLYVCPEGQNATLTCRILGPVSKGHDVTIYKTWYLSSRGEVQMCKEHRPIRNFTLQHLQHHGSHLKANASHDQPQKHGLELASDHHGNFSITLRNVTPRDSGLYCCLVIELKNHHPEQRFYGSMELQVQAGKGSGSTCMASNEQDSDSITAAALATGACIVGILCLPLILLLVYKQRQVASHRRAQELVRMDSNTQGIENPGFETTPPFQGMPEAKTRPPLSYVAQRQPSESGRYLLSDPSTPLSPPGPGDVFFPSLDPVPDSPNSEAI
# Assay: Cell-Based Binding High-Content Assay For mVISTA (HC CBA mVISTA)
# Details: cell-based binding high-content assay, mVISTA; the 16th table; read-out: HC CBA mVISTA IC50
# Method: Cell-Based Binding High-Content Assay For mVISTA
# Human embryonic kidney 293T cells (293T) expressing mouse VISTA (mVISTA) were used for the assessment of compounds competing with the binding of a biotinylated peptide. Cryopreserved cells were thawed in a 37° C. water bath and incubated overnight at a 37° C./5% CO2 incubator in assay culture media DMEM (Life Technologies Inc. Cat. No. 11995-126) supplemented with 10% (v/v) FBS (Sigma, Cat. No. F4135), 1× Penicillin/Streptomycin (Life Technologies Inc. Cat. No. 15140-122). Cells were harvested, washed and resuspended in DMEM media […]. To test compounds under “no-wash” condition, cells were seeded into PDL-coated 384 well plates (Corning, Cat. No. 356663) at 4,000 cells/20 μL. After incubating the cell plates for two hours at a 37° C./5% CO2 incubator, 125 nL of test compound was added using an ECHO. Alternatively, to test compounds under “wash” condition, test compounds were added first, followed by addition of 20 μL cells at a density of 4000 cells/well. After incubation for an hour, the media was removed, followed by addition of 20 μL of fresh media ( ), and plates were then incubated for another hour. To plates either under “no wash” or “wash” condition, the biotinylated peptide was added to a final concentration of 2 nM, and plates were incubated at room temperature for 30 minutes. Fifteen (15) μL of Alexa 647 conjugated Streptavidin (Life Tech, Cat. No. S21374), suspended at 2 μg/ml in media, was added to the assay plate and incubate for 30 minutes. Cells were fixed by adding 15 μL of formaldehyde at a final concentration of 8% (w/v) (Sigma Cat. No. 252549), 20 μg/mL Hoechst (Thermo Scientific Cat. No. 62249) in PBS for 10 minutes at room temperature. The plates were washed 3 times in dPBS, sealed, and read on a CellInsight NXT High Content Screening Platform IC903000 (Thermo Scientific). The 50% effective concentration (IC50) was calculated using the four-parameter logistic formula y=A+((B−A)/(1+((C/x)^D))), where A and B denote minimal and maximal % inhibition, respectively, C is the EC50, D is hill slope and x represent compound concentration.
row,IC50,Structure (SMILES)
1,9 nM,CCCCCCN1CC(=O)N[C@@H](Cc2ccc(O)cc2)C(=O)N[C@@H](CCCC)C(=O)N[C@@H](CC(=O)O)C(=O)N[C@@H](CCCNC(N)=O)C(=O)N(C)[C@@H](CCCC)C(=O)N[C@@H](CCCCC)C(=O)N2CCC[C@H]2C(=O)N[C@@H](C(C)C)C(=O)N[C@@H](CC(=O)O)C(=O)N[C@H](C(=O)N[C@@H](CC(=O)O)C(N)=O)CSCC(=O)N[C@@H](Cc2ccc3ccccc3c2)C(=O)N[C@@H](Cc2ccc(O)cc2)C(=O)N[C@@H](CC(=O)O)C1=O [Ex 1265] ({CH2CO}-[2Nal]YD[NHexGly]Y[Nle]D[Cit][NMeNle][Ahp(2)]PVDCD-NH2; thioether N-14)
2,6.5 nM,CCCCCCN1CC(=O)N[C@@H](Cc2ccc(O)cc2)C(=O)N[C@@H](CCCC)C(=O)N[C@@H](CC(=O)O)C(=O)N[C@@H](CCCNC(=N)N)C(=O)N(C)[C@@H](CCCC)C(=O)N[C@@H](CCCCC)C(=O)N2CCC[C@H]2C(=O)N[C@@H](C(C)C)C(=O)N[C@@H](CC(=O)O)C(=O)N[C@H](C(=O)N[C@@H](CC(=O)O)C(N)=O)CSCC(=O)N[C@@H](Cc2ccc3ccccc3c2)C(=O)N[C@@H](Cc2ccc(O)cc2)C(=O)N[C@@H](CC(=O)O)C1=O [Ex 1266] ({CH2CO}-[2Nal]YD[NHexGly]Y[Nle]DR[NMeNle][Ahp(2)]PVDCD-NH2; thioether N-14)
3,15.3 nM,CCCCCCN1CC(=O)N[C@@H](Cc2ccc(O)cc2)C(=O)N[C@@H](CCCC)C(=O)N[C@@H](CC(=O)O)C(=O)N[C@@H](CCCNC(=N)N)C(=O)N[C@@H](CC(C)C)C(=O)N[C@@H](CCCCC)C(=O)N2CCC[C@H]2C(=O)N[C@@H](C(C)C)C(=O)N[C@@H](CC(=O)O)C(=O)N[C@H](C(=O)N[C@@H](CC(=O)O)C(N)=O)CSCC(=O)N[C@@H](Cc2ccc3ccccc3c2)C(=O)N[C@@H](Cc2ccc(O)cc2)C(=O)N[C@@H](CC(=O)O)C1=O [Ex 1267] ({CH2CO}-[2Nal]YD[NHexGly]Y[Nle]DRL[Ahp(2)]PVDCD-NH2; thioether N-14)
4,9.7 nM,CCCCCCN1CC(=O)N[C@@H](Cc2ccc(O)cc2)C(=O)N[C@@H](CCCC)C(=O)N[C@@H](CC(=O)O)C(=O)N[C@@H](CCCN)C(=O)N[C@@H](CC(C)C)C(=O)N[C@@H](CCCCC)C(=O)N2CCC[C@H]2C(=O)N[C@@H](C(C)C)C(=O)N[C@@H](CC(=O)O)C(=O)N[C@H](C(=O)N[C@@H](CC(=O)O)C(N)=O)CSCC(=O)N[C@@H](Cc2ccc3ccccc3c2)C(=O)N[C@@H](Cc2ccc(O)cc2)C(=O)N[C@@H](CC(=O)O)C1=O [Ex 1268] ({CH2CO}-[2Nal]YD[NHexGly]Y[Nle]D[Orn]L[Ahp(2)]PVDCD-NH2; thioether N-14)
5,15.7 nM,CCCCC[C@@H]1NC(=O)[C@H](CC(C)C)NC(=O)[C@H](CCCNC(=N)N)NC(=O)CNC(=O)[C@H](C(C)C)NC(=O)[C@H](Cc2ccc(O)cc2)NC(=O)CN(CCCC)C(=O)[C@H](CC(=O)O)NC(=O)[C@H](Cc2ccc(O)cc2)NC(=O)[C@H](Cc2ccc3ccccc3c2)NC(=O)CSC[C@@H](C(=O)NCC(=O)O)NC(=O)[C@H](CC(=O)O)NC(=O)[C@H](C(C)C)NC(=O)[C@@H]2CCCN2C1=O [Ex 1269] ({CH2CO}-[2Nal]YD[NBuGly]YVGRL[Ahp(2)]PVDCG-OH; thioether N-14)
6,2.4 nM,CCCCC[C@@H]1NC(=O)[C@H](CC(C)C)NC(=O)[C@H](CCCNC(=N)N)NC(=O)[C@H](CC(N)=O)NC(=O)[C@H](CCCC)NC(=O)[C@H](Cc2ccc(O)cc2)NC(=O)CN(CCCC)C(=O)[C@H](CC(=O)O)NC(=O)[C@H](Cc2ccc(O)cc2)NC(=O)[C@H](Cc2ccc3ccccc3c2)NC(=O)CSC[C@@H](C(=O)NCC(=O)O)NC(=O)[C@H](CC(=O)O)NC(=O)[C@H](C(C)C)NC(=O)[C@@H]2CCCN2C1=O [Ex 1270] ({CH2CO}-[2Nal]YD[NBuGly]Y[Nle]NRL[Ahp(2)]PVDCG-OH; thioether N-14)
7,8 nM,CCCCC[C@@H]1NC(=O)[C@H](CC(C)C)NC(=O)[C@H](CCCNC(=N)N)NC(=O)[C@H](CC(N)=O)NC(=O)[C@H](CCCC)NC(=O)[C@H](Cc2ccc(O)cc2)NC(=O)CN(CCCC)C(=O)[C@H](CC(=O)O)NC(=O)[C@H](Cc2ccc(O)cc2)NC(=O)[C@H](Cc2ccc3ccccc3c2)NC(=O)CSC[C@@H](C(=O)NCC(N)=O)NC(=O)[C@H](CC(=O)O)NC(=O)[C@H](C(C)C)NC(=O)[C@@H]2CCCN2C1=O [Ex 1271] ({CH2CO}-[2Nal]YD[NBuGly]Y[Nle]NRL[Ahp(2)]PVDCG-NH2; thioether N-14)
8,2.8 nM,CCCCCCN1CC(=O)N[C@@H](Cc2ccc(O)cc2)C(=O)N[C@@H](CCCC)C(=O)N[C@@H](CC(N)=O)C(=O)N[C@@H](CCCNC(=N)N)C(=O)N[C@@H](CC(C)C)C(=O)N[C@@H](CCCCC)C(=O)N2CCC[C@H]2C(=O)N[C@@H](C(C)C)C(=O)N[C@@H](CO)C(=O)N[C@H](C(=O)NCC(=O)O)CSCC(=O)N[C@@H](Cc2ccc3ccccc3c2)C(=O)N[C@@H](Cc2ccc(O)cc2)C(=O)N[C@@H](CC(=O)O)C1=O [Ex 1272] ({CH2CO}-[2Nal]YD[NHexGly]Y[Nle]NRL[Ahp(2)]PVSCG-OH; thioether N-14)
9,14.3 nM,CCCCCCN1CC(=O)N[C@@H](Cc2ccc(O)cc2)C(=O)N[C@@H](CCCCC)C(=O)NCC(=O)N[C@@H](CCCNC(=N)N)C(=O)N[C@@H](CC(C)C)C(=O)N[C@@H](CCCCC)C(=O)N2CCC[C@H]2C(=O)N[C@@H](C(C)C)C(=O)N[C@@H](CO)C(=O)N[C@H](C(=O)NCC(N)=O)CSCC(=O)N[C@@H](Cc2ccc3ccccc3c2)C(=O)N[C@@H](Cc2ccc(O)cc2)C(=O)N[C@@H](CC(=O)O)C1=O [Ex 1273] ({CH2CO}-[2Nal]YD[NHexGly]Y[Ahp(2)]GRL[Ahp(2)]PVSCG-NH2; thioether N-14)
10,32 nM,CCCCCCN1CC(=O)N[C@@H](Cc2ccc(O)cc2)C(=O)N[C@@H](CC(C)C)C(=O)NCC(=O)N[C@@H](CCCNC(=N)N)C(=O)N[C@@H](CC(C)C)C(=O)N[C@@H](CCCCC)C(=O)N2CCC[C@H]2C(=O)N[C@@H](C(C)C)C(=O)N[C@@H](CO)C(=O)N[C@H](C(=O)NCC(=O)O)CSCC(=O)N[C@@H](Cc2ccc3ccccc3c2)C(=O)N[C@@H](Cc2ccc(O)cc2)C(=O)N[C@@H](CC(=O)O)C1=O [Ex 1274] ({CH2CO}-[2Nal]YD[NHexGly]YLGRL[Ahp(2)]PVSCG-OH; thioether N-14)
11,35.9 nM,CCCCCCN1CC(=O)N[C@@H](Cc2ccc(O)cc2)C(=O)N[C@@H](CC(C)C)C(=O)NCC(=O)N[C@@H](CCCNC(=N)N)C(=O)N[C@@H](CC(C)C)C(=O)N[C@@H](CCCCC)C(=O)N2CCC[C@H]2C(=O)N[C@@H](C(C)C)C(=O)N[C@@H](CO)C(=O)N[C@H](C(=O)NCC(N)=O)CSCC(=O)N[C@@H](Cc2ccc3ccccc3c2)C(=O)N[C@@H](Cc2ccc(O)cc2)C(=O)N[C@@H](CC(=O)O)C1=O [Ex 1275] ({CH2CO}-[2Nal]YD[NHexGly]YLGRL[Ahp(2)]PVSCG-NH2; thioether N-14)
12,40.6 nM,CCCCCCN1CC(=O)N[C@@H](Cc2ccc(O)cc2)C(=O)N[C@@H](CCCC)C(=O)NCC(=O)N[C@@H](CCCNC(=N)N)C(=O)N[C@@H](CC(C)C)C(=O)N[C@@H](CCCCC)C(=O)N2CCC[C@H]2C(=O)N[C@@H](C(C)C)C(=O)N[C@@H](CO)C(=O)N[C@H](C(=O)NCC(N)=O)CSCC(=O)N[C@@H](Cc2ccc3ccccc3c2)C(=O)N[C@@H](Cc2ccc(O)cc2)C(=O)N[C@@H](CC(=O)O)C1=O [Ex 1276] ({CH2CO}-[2Nal]YD[NHexGly]Y[Nle]GRL[Ahp(2)]PVSCG-NH2; thioether N-14)
13,23.2 nM,CCCCCCN1CC(=O)N[C@@H](Cc2ccc(O)cc2)C(=O)N[C@@H](C(C)C)C(=O)NCC(=O)N[C@@H](CCCNC(=N)N)C(=O)N[C@@H](CC(C)C)C(=O)N[C@@H](CCCCC)C(=O)N2CCC[C@H]2C(=O)N[C@@H](C(C)C)C(=O)N[C@@H](CO)C(=O)N[C@H](C(=O)NCC(=O)O)CSCC(=O)N[C@@H](Cc2ccc3ccccc3c2)C(=O)N[C@@H](Cc2ccc(O)cc2)C(=O)N[C@@H](CC(=O)O)C1=O [Ex 1277] ({CH2CO}-[2Nal]YD[NHexGly]YVGRL[Ahp(2)]PVSCG-OH; thioether N-14)
